Assay results as given in publication PMC11859264, “Discovery of a Novel Multitarget Analgesic Through an In Vivo-Guided Approach” (Pharmaceuticals, 2025).

How the values were obtained:
Serotonin 5-HT2A = Serotonin 5-HT2A (Homo sapiens, UniProt P28223); assay: Radioligand binding, [3H] Ketanserin, Eurofins; conditions: Serotonin 5-HT2A
[1] = target: T1, Transporter, Dopamine (DAT) (Homo sapiens, UniProt Q01959); assay: Radioligand binding, [125I] RTI-55, Eurofins; conditions: DAT
T1 construct: host or cells: CHO-S cells

CYP2C19 = CYP2C19 (Homo sapiens, UniProt P33261); assay: Cytochrome P450 (CYP) inhibition assay; conditions: microsomes, pH 7.4
CYP3A4 = CYP3A4 (Homo sapiens, UniProt P08684); assay: Cytochrome P450 (CYP) inhibition assay; conditions: microsomes, pH 7.4
CYP2C9 = CYP2C9 (Homo sapiens, UniProt P11712); assay: Cytochrome P450 (CYP) inhibition assay; conditions: microsomes, pH 7.4
Adrenergic α2A = target: T2, Adrenergic α2A (Homo sapiens, UniProt P08913); assay: Radioligand binding, [3H] Rauwolscine, Eurofins; conditions: Adrenergic α2A
T2 sequence (P08913 1-465): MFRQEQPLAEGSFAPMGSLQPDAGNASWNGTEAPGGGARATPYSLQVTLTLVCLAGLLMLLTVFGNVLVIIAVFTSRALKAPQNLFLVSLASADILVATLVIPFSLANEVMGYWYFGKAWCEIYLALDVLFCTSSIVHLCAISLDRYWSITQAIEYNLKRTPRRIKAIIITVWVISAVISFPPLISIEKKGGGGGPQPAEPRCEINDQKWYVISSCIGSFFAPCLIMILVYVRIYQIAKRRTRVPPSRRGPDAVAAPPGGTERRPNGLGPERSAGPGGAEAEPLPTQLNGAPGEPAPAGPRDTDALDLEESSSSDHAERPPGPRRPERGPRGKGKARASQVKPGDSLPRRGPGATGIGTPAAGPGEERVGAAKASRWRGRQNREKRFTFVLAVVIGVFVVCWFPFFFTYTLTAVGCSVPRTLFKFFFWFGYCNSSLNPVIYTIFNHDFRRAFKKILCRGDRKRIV

formalin model = assay: Formalin test in mice (primary in vivo screening and ED50); design: species or system ICR male mice; conditions: mice, second phase; for % Inhibition in the second phase of the formalin model relative to vehicle control: 5 mg/kg intraperitoneal; for ED50: Mus musculus, ip, intraperitoneal, doses 0.1, 1, 5 and 10 mg/kg, read-out: ED50 in the second phase of the formalin model
Method: For primary screening, the synthesized compounds were administered to mice via intraperitoneal injection at a dose of 5 mg/kg using the formalin model. The percentage inhibition in the second phase, relative to the vehicle control (DMSO/cremophor EL/distilled water = 10:10:80), was calculated.
Each compound was assessed using four doses (0.1, 1, 5, and 10 mg/kg) by intraperitoneal injection.
ICR male mice weighing 23–25 g was purchased from Samtako Korea (Osan, Republic of Korea). ICR mice were housed four per cage in a room with 12 h light–dark cycles. The temperature and relative humidity of the room were maintained at 22 ± 2 °C and 50 ± 5%, respectively. Food and water were available ad libitum. The procedures for animal testing were approved by Medifron Animal Care and Use Committees (Approval number; Medifron 2019-9). Efforts were made to minimize animal suffering and to reduce the number of animals used.
Mice were randomly assigned to five groups (four per group) and single-dose drugs were administered by intraperitoneal injection. The formalin-induced licking paw test was modified from the method described by Dubuisson and Dennis. Each mouse was acclimated to an acrylic observation chamber for at least 30 min before the injection of formalin. Twenty microliters of 2% formalin were injected subcutaneously into the right side of the hind paw. Each mouse was then placed in an individual clear plastic observational chamber (15 × 15 × 15 cm, volume = […] or 3.375 L), and the pain response was recorded for a period of 30 min. The summation of time (in seconds) spent in licking and biting responses of the injected paw during each 5 min block was measured as an indicator of the pain response. The first period (early phase) was recorded 0–5 min after the injection of formalin, and the second period (late phase) was recorded 20–30 min after the injection. The test compound was administered intraperitoneally 30 min before the formalin injection at […]: 0.1, 1, 5, and 10 mg/kg. The vehicle was DMSO/Cremophor EL/distilled water (10/10/80). The data were expressed as the mean ± standard error of the mean (SEM). Statistical analysis was assessed by one-way analysis of variance (ANOVA) with Bonferroni’s post hoc test. Statistical significance was set at p-value < 0.05, with values of p <0.001 considered highly significant.

Dopamine D2L = target: T3, Dopamine D2L (Homo sapiens, UniProt P14416); assay: Radioligand binding, [3H] Spiperone, Eurofins; conditions: Dopamine D2L
T3 construct: host or cells: CHO cells
T3 sequence (P14416 whole entry): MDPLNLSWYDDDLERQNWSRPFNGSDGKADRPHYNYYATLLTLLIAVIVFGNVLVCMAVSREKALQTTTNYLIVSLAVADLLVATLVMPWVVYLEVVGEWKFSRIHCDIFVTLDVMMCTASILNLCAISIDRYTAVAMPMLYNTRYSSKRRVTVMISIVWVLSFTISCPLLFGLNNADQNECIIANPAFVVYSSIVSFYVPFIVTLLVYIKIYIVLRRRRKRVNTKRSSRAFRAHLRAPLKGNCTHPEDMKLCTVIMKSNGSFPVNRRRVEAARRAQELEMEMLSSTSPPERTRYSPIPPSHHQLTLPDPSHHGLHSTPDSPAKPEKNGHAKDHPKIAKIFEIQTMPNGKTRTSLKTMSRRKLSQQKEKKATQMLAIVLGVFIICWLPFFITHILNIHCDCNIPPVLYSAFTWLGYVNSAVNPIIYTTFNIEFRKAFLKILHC

T1 sequence (Q01959 whole entry): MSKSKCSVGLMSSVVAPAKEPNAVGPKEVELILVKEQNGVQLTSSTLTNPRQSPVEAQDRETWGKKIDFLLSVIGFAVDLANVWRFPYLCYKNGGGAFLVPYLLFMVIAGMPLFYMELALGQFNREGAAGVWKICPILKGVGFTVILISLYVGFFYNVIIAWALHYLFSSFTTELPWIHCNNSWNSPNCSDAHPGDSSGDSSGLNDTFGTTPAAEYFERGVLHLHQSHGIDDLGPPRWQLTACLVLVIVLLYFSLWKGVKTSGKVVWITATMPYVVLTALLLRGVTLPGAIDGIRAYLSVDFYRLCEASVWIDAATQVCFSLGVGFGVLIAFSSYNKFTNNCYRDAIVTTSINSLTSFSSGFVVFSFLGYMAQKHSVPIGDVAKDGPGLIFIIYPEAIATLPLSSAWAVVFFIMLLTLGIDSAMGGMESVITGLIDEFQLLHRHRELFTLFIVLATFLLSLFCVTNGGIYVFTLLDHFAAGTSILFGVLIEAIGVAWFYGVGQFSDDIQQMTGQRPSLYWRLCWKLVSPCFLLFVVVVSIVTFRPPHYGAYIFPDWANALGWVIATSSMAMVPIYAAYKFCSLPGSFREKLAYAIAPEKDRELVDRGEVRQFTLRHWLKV
Chain of CYP3A4 (P08684 whole entry): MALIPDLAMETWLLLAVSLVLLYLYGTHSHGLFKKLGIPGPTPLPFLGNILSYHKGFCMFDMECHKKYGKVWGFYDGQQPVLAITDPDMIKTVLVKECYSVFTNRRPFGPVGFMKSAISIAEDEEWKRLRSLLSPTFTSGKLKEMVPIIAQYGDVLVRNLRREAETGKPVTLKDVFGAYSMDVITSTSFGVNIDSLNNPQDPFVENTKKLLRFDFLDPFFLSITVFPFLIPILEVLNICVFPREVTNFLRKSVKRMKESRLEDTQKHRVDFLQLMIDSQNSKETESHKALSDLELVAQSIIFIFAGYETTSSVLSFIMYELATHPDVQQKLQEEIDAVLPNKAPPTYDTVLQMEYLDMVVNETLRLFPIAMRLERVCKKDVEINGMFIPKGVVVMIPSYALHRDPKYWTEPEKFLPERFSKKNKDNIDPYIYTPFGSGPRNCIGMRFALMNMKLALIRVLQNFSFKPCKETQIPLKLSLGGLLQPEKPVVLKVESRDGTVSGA
Chain of Serotonin 5-HT2A (P28223 whole entry): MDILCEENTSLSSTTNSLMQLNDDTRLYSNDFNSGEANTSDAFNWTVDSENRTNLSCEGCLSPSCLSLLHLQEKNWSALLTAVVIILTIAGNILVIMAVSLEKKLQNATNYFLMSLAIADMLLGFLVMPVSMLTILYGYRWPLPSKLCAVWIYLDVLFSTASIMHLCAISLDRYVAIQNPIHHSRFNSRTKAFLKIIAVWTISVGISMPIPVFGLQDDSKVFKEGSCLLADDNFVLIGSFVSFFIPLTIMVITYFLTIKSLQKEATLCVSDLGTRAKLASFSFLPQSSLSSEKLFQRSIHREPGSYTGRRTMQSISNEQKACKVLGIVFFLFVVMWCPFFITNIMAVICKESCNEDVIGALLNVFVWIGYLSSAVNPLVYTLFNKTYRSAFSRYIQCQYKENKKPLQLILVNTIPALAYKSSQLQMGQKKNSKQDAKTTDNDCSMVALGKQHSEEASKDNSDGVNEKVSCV
Chain of CYP2C19 (P33261 whole entry): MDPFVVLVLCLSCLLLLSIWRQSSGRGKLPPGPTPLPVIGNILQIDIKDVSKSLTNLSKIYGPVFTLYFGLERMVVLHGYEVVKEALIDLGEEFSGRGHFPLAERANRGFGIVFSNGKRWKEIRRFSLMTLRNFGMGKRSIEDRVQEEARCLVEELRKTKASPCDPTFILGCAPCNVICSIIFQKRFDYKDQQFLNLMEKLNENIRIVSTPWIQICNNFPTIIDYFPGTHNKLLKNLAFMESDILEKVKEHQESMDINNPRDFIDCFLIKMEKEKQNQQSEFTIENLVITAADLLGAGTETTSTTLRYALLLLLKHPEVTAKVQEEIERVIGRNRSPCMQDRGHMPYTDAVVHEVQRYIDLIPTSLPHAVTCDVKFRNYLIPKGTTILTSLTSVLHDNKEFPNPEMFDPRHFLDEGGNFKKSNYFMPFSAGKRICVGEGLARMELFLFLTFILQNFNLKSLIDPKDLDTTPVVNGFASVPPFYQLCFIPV
Chain of CYP2C9 (P11712 whole entry): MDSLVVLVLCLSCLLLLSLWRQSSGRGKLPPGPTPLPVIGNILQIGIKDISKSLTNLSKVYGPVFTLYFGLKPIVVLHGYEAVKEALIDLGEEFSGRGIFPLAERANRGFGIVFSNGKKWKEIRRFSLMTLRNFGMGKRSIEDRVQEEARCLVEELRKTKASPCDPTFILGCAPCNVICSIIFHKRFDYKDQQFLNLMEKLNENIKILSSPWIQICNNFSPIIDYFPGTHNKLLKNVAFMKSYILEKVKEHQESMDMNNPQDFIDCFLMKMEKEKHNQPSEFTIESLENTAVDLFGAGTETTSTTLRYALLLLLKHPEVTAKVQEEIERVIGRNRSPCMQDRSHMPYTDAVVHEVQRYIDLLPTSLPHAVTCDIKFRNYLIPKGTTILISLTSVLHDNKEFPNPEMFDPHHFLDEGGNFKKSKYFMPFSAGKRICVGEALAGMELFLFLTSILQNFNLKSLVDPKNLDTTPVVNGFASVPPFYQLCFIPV

Row | SMILES | % Inhibition in the second phase of the formalin model relative to vehicle control (formalin model) [%] | other results
1 | O=C(c1ccc(F)cc1)C1CCN(CCn2c(=O)[nH]c3ccccc3c2=O)CC1 [Ketanserin, reference compound] |  | nH (Hill coefficient) (Serotonin 5-HT2A): 0.99
2 | Fc1ccc(C(OCCN2CCN(CCCc3ccccc3)CC2)c2ccc(F)cc2)cc1 [Vanoxerine, reference compound] |  | nH (Hill coefficient) [1]: 1.01
3 | CC(=O)N1CCN(c2ccc(OCC3COC(Cn4ccnc4)(c4ccc(Cl)cc4Cl)O3)cc2)CC1 (stereo not drawn) [Ketoconazole] |  | inhibition at 15 min, 0.1 µM (CYP2C19): 0%; inhibition at 15 min, 0.1 µM (CYP3A4): 68%; inhibition at 15 min, 0.1 µM (CYP2C9): 3.2%
4 | COC(=O)[C@@H]1[C@H]2C[C@H]3c4[nH]c5ccccc5c4CCN3C[C@@H]2CC[C@@H]1O [Yohimbine, reference compound] |  | nH (Hill coefficient) (Adrenergic α2A): 0.88
5 | N#Cc1ccc2[nH]cc(C(=O)NCCCN3CCN(c4ncccc4Cl)CC3)c2c1 [Compound 43, N-(3-(4-(3-Chloropyridin-2-yl)piperazin-1-yl)propyl)-5-cyano-1H-indole-3-carboxamide] | 45.3 | 
6 | N#Cc1ccc2[nH]cc(C(=O)NCCN3CCN(c4ncccc4Cl)CC3)c2c1 [Compound 27, N-(2-(4-(3-Chloropyridin-2-yl)piperazin-1-yl)ethyl)-5-cyano-1H-indole-3-carboxamide] | 48.0 | 
7 | N#Cc1ccc2[nH]cc(C(=O)NCCN3CCN(c4ccc(F)cc4)CC3)c2c1 [Compound 23, 5-Cyano-N-(2-(4-(4-fluorophenyl)piperazin-1-yl)ethyl)-1H-indole-3-carboxamide] | 35.8 | 
8 | N#Cc1ccc2[nH]cc(C(=O)NCCN3CCC(c4noc5cc(F)ccc45)CC3)c2c1 [Compound 52, 5-Cyano-N-(2-(4-(6-fluorobenzo[d]isoxazol-3-yl)piperidin-1-yl)ethyl)-1H-indole-3-carboxamide] | 46.7 | 
9 | N#Cc1ccc2[nH]cc(C(=O)NCCCN3CCN(C(=O)c4ccc(F)cc4)CC3)c2c1 [Compound 49, 5-Cyano-N-(3-(4-(4-fluorobenzoyl)piperazin-1-yl)propyl)-1H-indole-3-carboxamide] | 20.3 | 
10 | N#Cc1ccc2[nH]cc(C(=O)NCCCN3CCN(C(=O)C4COc5ccccc5O4)CC3)c2c1 (stereo not drawn) [Compound 51, 5-Cyano-N-(3-(4-(2,3-dihydrobenzo[b][1,4]dioxine-2-carbonyl)piperazin-1-yl)propyl)-1H-indole-3-carboxamide] | 27.3 | 
11 | N#Cc1ccc2[nH]cc(C(=O)NCCN3CCN(c4cccc(C(F)(F)F)c4)CC3)c2c1 [Compound 22, 5-Cyano-N-(2-(4-(3-(trifluoromethyl)phenyl)piperazin-1-yl)ethyl)-1H-indole-3-carboxamide] |  | ED50 (formalin model): 1.3 mg/kg
12 | N#Cc1ccc2[nH]cc(C(=O)NCCCN3CCN(c4ncccc4C(F)(F)F)CC3)c2c1 [Compound 44, 5-Cyano-N-(3-(4-(3-(trifluoromethyl)pyridin-2-yl)piperazin-1-yl)propyl)-1H-indole-3-carboxamide] | 3.7 | 
13 | N#Cc1ccc2[nH]cc(C(=O)NCCN3CCN(c4cccc(Cl)c4)CC3)c2c1 [Compound 21, N-(2-(4-(3-Chlorophenyl)piperazin-1-yl)ethyl)-5-cyano-1H-indole-3-carboxamide] |  | ED50 (formalin model): 2.3 mg/kg
14 | N#Cc1ccc2[nH]cc(C(=O)NCCN3CCN(C(=O)c4ccc(F)cc4)CC3)c2c1 [Compound 33, 5-Cyano-N-(2-(4-(4-fluorobenzoyl)piperazin-1-yl)ethyl)-1H-indole-3-carboxamide] | 24.2 | 
15 | N#Cc1ccc2[nH]cc(C(=O)NCCN3CCN(c4ccc(C(F)(F)F)cc4)CC3)c2c1 [Compound 25, 5-Cyano-N-(2-(4-(4-(trifluoromethyl)phenyl)piperazin-1-yl)ethyl)-1H-indole-3-carboxamide] | 19.8 | 
16 | N#Cc1ccc2[nH]cc(C(=O)NCCCN3CCN(c4ccc5ccccc5n4)CC3)c2c1 [Compound 45, 5-Cyano-N-(3-(4-(quinolin-2-yl)piperazin-1-yl)propyl)-1H-indole-3-carboxamide] |  | ED50 (formalin model): 0.93 mg/kg
17 | O=C(CCCN1CCC2(CC1)C(=O)NCN2c1ccccc1)c1ccc(F)cc1 [Spiperone, reference compound] |  | nH (Hill coefficient) (Dopamine D2L): 0.71
18 | N#Cc1ccc2[nH]cc(C(=O)NCCN3CCC(n4c(=O)[nH]c5cc(Cl)ccc54)CC3)c2c1 [Compound 53, N-(2-(4-(5-Chloro-2-oxo-2,3-dihydro-1H-benzo[d]imidazol-1-yl)piperidin-1-yl)ethyl)-5-cyano-1H-indole-3-carboxamide] | 14.3 | 
19 | N#Cc1ccc2[nH]cc(C(=O)NCCCN3CCN(c4cccc(Cl)c4)CC3)c2c1 [Compound 37, N-(3-(4-(3-Chlorophenyl)piperazin-1-yl)propyl)-5-cyano-1H-indole-3-carboxamide] |  | ED50 (formalin model): 3.2 mg/kg
20 | N#Cc1ccc2[nH]cc(C(=O)NCCCN3CCC(n4c(=O)[nH]c5cc(Cl)ccc54)CC3)c2c1 [Compound 55, N-(3-(4-(5-Chloro-2-oxo-2,3-dihydro-1H-benzo[d]imidazol-1-yl)piperidin-1-yl)propyl)-5-cyano-1H-indole-3-carboxamide] | 24.0 | 
21 | N#Cc1ccc2[nH]cc(C(=O)NCCCN3CCN(c4ccc5oc(C(N)=O)cc5c4)CC3)c2c1 [Compound 46, N-(3-(4-(2-Carbamoylbenzofuran-5-yl)piperazin-1-yl)propyl)-5-cyano-1H-indole-3-carboxamide] | 49.2 | 
22 | N#Cc1ccc2[nH]cc(C(=O)NCCN3CCN(c4ccc5oc(C(N)=O)cc5c4)CC3)c2c1 [Compound 30, N-(2-(4-(2-Carbamoylbenzofuran-5-yl)piperazin-1-yl)ethyl)-5-cyano-1H-indole-3-carboxamide] | 23.8 | 
